This assay addresses T1, His-EBNA1 (DNA binding domain of EBNA1, amino acids 459-607) (Epstein-Barr virus, UniProt P03211).
T1 construct: made in house; host or cells: E. coli
The assay can be described thus: Inhibition of 5′-biotin-oPL4624 binding to His-EBNA1 using Alpha Screen technology. Conditions: Alpha Screen Activity (IC50, inhibition of 5′-biotin-oPL4624 binding to His-EBNA1), 15 nM His-EBNA1, 0.2 nM bt-oPL4624, 2 hr room temperature. In a few lines: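 His-tagged EBNA1 DNA-binding domain (aa 459-607, E. coli-expressed) at 15 nM with 0.2 nM biotinylated self-complementary oligo, streptavidin donor and nickel acceptor beads, in 25 mM Tris pH 7.2, 160 mM NaCl, 1 mM MgCl2. Compound 3.2 nM-100 μM final; AlphaScreen read after 2 h at room temperature, one-site dose-response fit.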
Background: In Alpha technology, singlet oxygen from a donor bead excites a nearby acceptor bead.

Where only a bound is given, the exact number is not on record here.

T1 sequence (P03211 459-607): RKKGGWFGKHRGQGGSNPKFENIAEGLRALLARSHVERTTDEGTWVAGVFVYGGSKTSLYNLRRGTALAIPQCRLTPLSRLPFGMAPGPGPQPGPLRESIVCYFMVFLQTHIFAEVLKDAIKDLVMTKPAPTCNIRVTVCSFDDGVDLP

`COC(=O)c1c[nH]c2cc(-c3c(C#Cc4cscn4)cccc3C(=O)O)ccc12` [Entry 217, 2-(3-(Methoxycarbonyl)-1H-indol-6-yl)-3-(thiazol-4-ylethynyl)benzoic acid] had an IC50 of 1 to 10 µM.
With `O=C(O)c1cccc(C#Cc2cscn2)c1-c1ccc2cc[nH]c2c1` [Entry 218, 2-(1H-indol-6-yl)-3-(thiazol-4-ylethynyl)benzoic acid] the figure was 10 to 100 µM; with `Cn1cc(-c2c(C#Cc3cscn3)cccc2C(=O)O)cn1` [Entry 219, 2-(1-methyl-1H-pyrazol-4-yl)-3-(thiazol-4-ylethynyl)benzoic acid], 10 to 100 µM; with `Cn1cc(-c2c(C#Cc3cccc(O)c3)cccc2C(=O)O)cn1` [Entry 220, 3-((3-hydroxyphenyl)ethynyl)-2-(1-methyl-1H-pyrazol-4-yl)benzoic acid], 1 to 10 µM.
With `O=C(O)c1cccc(C#Cc2cccc(O)c2)c1-c1ccc2c(Cl)c[nH]c2c1` [Entry 221, 2-(3-chloro-1H-indol-6-yl)-3-((3-hydroxyphenyl)ethynyl)benzoic acid] the figure was 1 to 10 µM.
Then `O=C(O)c1cccc(C#Cc2cccc(O)c2)c1-c1ccc2cn[nH]c2c1` [Entry 222, 3-((3-hydroxyphenyl)ethynyl)-2-(1H-indazol-6-yl)benzoic acid], with 1 to 10 µM; and `CC(=O)NCCc1c[nH]c2cc(-c3c(C#Cc4cccc(O)c4)cccc3C(=O)O)ccc12` [Entry 223, 2-(3-(2-acetamidoethyl)-1H-indol-6-yl)-3-((3-hydroxyphenyl)ethynyl)benzoic acid], with 1 to 10 µM; and `CN(C)S(=O)(=O)c1cccc(C#Cc2cccc(C(=O)O)c2F)c1` [Entry 224], with 10 to 100 µM.
For the compound `O=C(O)c1cccc(C#Cc2ccc(OC3CCOCC3)cc2)c1-c1ccc2cc[nH]c2c1` [Entry 225, 2-(1H-indol-6-yl)-3-((4-(tetrahydro-2H-pyran-4-yloxy)phenyl)ethynyl)benzoic acid], the IC50 was below 1 µM.
With `O=C(O)c1cccc(C#Cc2ccc(N3CCOCC3)cc2)c1-c1ccc2cc[nH]c2c1` [Entry 226, 2-(1H-indol-6-yl)-3-((4-morpholinophenyl)ethynyl)benzoic acid] the figure was 10 to 100 µM; with `NC(=O)c1cccc(C#Cc2cccc(C(=O)O)c2-c2ccc3cc[nH]c3c2)c1` [Entry 227, 3-((3-carbamoylphenyl)ethynyl)-2-(1H-indol-6-yl)benzoic acid], 10 to 100 µM; with `O=C(O)c1cccc(C#Cc2ccc(F)cc2)c1-c1ccc2cc[nH]c2c1` [Entry 228, 3-((4-Fluorophenyl)ethynyl)-2-(1H-indol-6-yl)benzoic acid], 1 to 10 µM.
Then `O=C(O)c1cccc(C#Cc2ccc(F)cc2F)c1-c1ccc2cc[nH]c2c1` [Entry 229, 3-((2,4-Difluorophenyl)ethynyl)-2-(1H-indol-6-yl)benzoic acid], with 1 to 10 µM; and `CC(=O)Nc1cccc(C#Cc2cccc(C(=O)O)c2-c2ccc3cc[nH]c3c2)c1` [Entry 230, 3-((3-Acetamidophenyl)ethynyl)-2-(1H-indol-6-yl)benzoic acid], with below 1 µM.
Then `O=C(Nc1cccc(C#Cc2cccc(C(=O)O)c2-c2ccc3cc[nH]c3c2)c1)c1cccnc1` [Entry 231, 2-(1H-indol-6-yl)-3-((3-(nicotinamido)phenyl)ethynyl)benzoic acid], with 1 to 10 µM; and `O=C(O)c1cccc(C#Cc2cccc(NS(=O)(=O)c3ccc(F)c(Cl)c3)c2)c1-c1ccc2cc[nH]c2c1` [Entry 232, 3-((3-(3-chloro-4-fluorophenylsulfonamido)phenyl)ethynyl)-2-(1H-indol-6-yl)benzoic acid], with below 1 µM; and `Nc1cccc(C#Cc2cccc(C(=O)O)c2-c2ccc3cc[nH]c3c2)c1` [Entry 233, 3-((3-aminophenyl)ethynyl)-2-(1H-indol-6-yl)benzoic acid], with below 1 µM.
As to `CS(=O)(=O)Nc1cccc(C#Cc2cccc(C(=O)O)c2-c2ccc3cc[nH]c3c2)c1` [Entry 234, 2-(1H-indol-6-yl)-3-((3-(methylsulfonamido)phenyl)ethynyl)benzoic acid], the IC50 was in the range of 1 to 10 µM.
With `O=C(O)c1cccc(C#Cc2cccc(NS(=O)(=O)c3cccs3)c2)c1-c1ccc2cc[nH]c2c1` [Entry 235, 2-(1H-indol-6-yl)-3-((3-(thiophene-2-sulfonamido)phenyl)ethynyl)benzoic acid] the figure was below 1 µM.
Then `CC(=O)Nc1cc(F)cc(C#Cc2cccc(C(=O)O)c2-c2ccc3cc[nH]c3c2)c1` [Entry 236, 3-((3-acetamido-5-fluorophenyl)ethynyl)-2-(1H-indol-6-yl)benzoic acid], with below 1 µM.
With `O=C(O)c1cccc(C#Cc2ccccc2)c1-c1ccc2c(c1)NCC2` [Entry 237, 2-(indolin-6-yl)-3-(phenylethynyl)benzoic acid] the figure was 10 to 100 µM.
Turning to `O=C(O)c1cccc(C#Cc2cccc(O)c2)c1-c1ccc2c(c1)NCC2` [Entry 238, 3-((3-hydroxyphenyl)ethynyl)-2-(indolin-6-yl)benzoic acid], the IC50 was in the range of 1 to 10 µM.
With `Nc1cccc(C#Cc2cccc(C(=O)O)c2-c2ccc3cc[nH]c3c2)n1` [Entry 239, 3-((6-aminopyridin-2-yl)ethynyl)-2-(1H-indol-6-yl)benzoic acid] the figure was 1 to 10 µM; with `Nc1cc(C#Cc2cccc(C(=O)O)c2-c2ccc3cc[nH]c3c2)ccn1` [Entry 240, 3-((2-aminopyridin-4-yl)ethynyl)-2-(1H-indol-6-yl)benzoic acid], 1 to 10 µM.
With `COc1cncc(-c2c(C#Cc3cccc(O)c3)cccc2C(=O)O)c1` [Entry 241, 3-((3-hydroxyphenyl)ethynyl)-2-(5-methoxypyridin-3-yl)benzoic acid] the figure was 10 to 100 µM; with `O=C(O)c1cccc(C#Cc2cccc(O)c2)c1-c1ccc2c(c1)OCO2` [Entry 242, 2-(benzo[d][1,3]dioxol-5-yl)-3-((3-hydroxyphenyl)ethynyl)benzoic acid], 10 to 100 µM.
On to `O=C(O)c1cccc(C#Cc2cccc(O)c2)c1-c1cncnc1` [Entry 243, 3-((3-hydroxyphenyl)ethynyl)-2-(pyrimidin-5-yl)benzoic acid], for which the IC50 lay in the range of 10 to 100 µM.
Then `COc1cc(-c2c(C#Cc3cccc(O)c3)cccc2C(=O)O)ccc1N` [Entry 244, 4′-Amino-6-((3-hydroxyphenyl)ethynyl)-5′-methoxybiphenyl-2-carboxylic acid], with 10 to 100 µM; and `O=C(O)c1cccc(C#CCCO)c1-c1ccc2cc[nH]c2c1` [Entry 245, 3-(4-hydroxybut-1-ynyl)-2-(1H-indol-6-yl)benzoic acid], with below 1 µM; and `CC(C)(N)C#Cc1cccc(C(=O)O)c1-c1ccc2cc[nH]c2c1` [Entry 246, 3-(3-amino-3-methylbut-1-ynyl)-2-(1H-indol-6-yl)benzoic acid], with 1 to 10 µM.
Then `O=C(O)c1cccc(C#CC(O)c2ccccc2)c1-c1ccc2cc[nH]c2c1` (centres unmarked) [Entry 247, 3-(3-hydroxy-3-phenylprop-1-ynyl)-2-(1H-indol-6-yl)benzoic acid], with below 1 µM.
Then `CC(C)(O)C#Cc1cccc(C(=O)O)c1-c1ccc2cc[nH]c2c1` [Entry 248, 3-(3-hydroxy-3-methylbut-1-ynyl)-2-(1H-indol-6-yl)benzoic acid], with below 1 µM.

Usually IC50 stands for the concentration that gives 50% inhibition. Low values mean greater potency in that assay, high ones weaker potency in that assay.

The record behind these values is patent US10421718B2, “EBNA1 inhibitors and their method of use” (priority 2013, dated 2019).
